Experimental data from patent US6506937B2, “Substituted benzenesulfonylureas and -thioureas-processes for their preparation and their use as pharmaceuticals” (priority 1993, dated 2003).

How the values were obtained:
[1] = system: papillary muscle of the guineapig; assay: Action potential duration on the papillary muscle of the guineapig; format: cell-based; settings: test substance 2.2×10^−5 mol per liter, 30 minutes after the addition, repolarization degree of 95%; for APD95-HOE 234: action potential shortened by 1 μM potassium channel opener Hoe 234 (rilmakalim); for APD95-DEO: action potential shortened by 2-deoxyglucose (DEO)
Excerpt: (1) Action potential duration on the papillary muscle of the guineapig:
ATP deficiency states such as are observed during ischemia in the cardiac muscle cell lead to a shortening of the duration of action potential. They are one of the causes of so-called reentry arrhythmias, which can cause sudden cardiac death. Opening of ATP-sensitive K channels by the reduction in ATP is a cause of this.
A standard microelectrode technique is used for measurement of the action potential. For this, guineapigs of both sexes are sacrificed by a blow to the head, the hearts are removed and the papillary muscles are separated out and suspended in an organ bath. The organ bath is flushed with Ringer solution (0.9% NaCl, 0.048% KCl, 0.024% CaCl2, 0.02% NaHCO3 and 0.1% glucose) and gassed with a mixture of 95% oxygen and 5% carbon dioxide at a temperature of 36° C. The muscle is stimulated via an electrode with rectangular pulses of 1 V and 1 ms duration and a frequency of 2 Hz. The action potential is conducted and recorded through a glass microelectrode, which is punctured intracellularly and filled with 3 mol KCl solution. The substances to be tested were added to the Ringer solution in a concentration of 2.2×10^−5 mol per liter. The action potential is shown in amplified form on an oscilloscope using a Hugo Sachs amplifier. The duration of the action potential is determined at a repolarization degree of 95% (APD95). Shortenings in action potential are caused either by addition of a 1 μM strength solution of the potassium channel opener Hoe 234 (rilmakalim) [W. Linz, E. Klaus, U. Albus, R. H. A. Becker, D. Mania, H. C. Englert, B. A. Schölkens Arzneimittelforechung/Drug Research, Volume 42 (II), 1992, pages 1180-1185] or by addition of 2-deoxyglucose (DEO). ATP deficiency states are caused in experimental physiology by 2-deoxyglucose by blockade of glucose meta-bolism. The action potential-shortening effect of these substances was prevented or reduced by the simultaneous dose of the test substances. The test substances were added to the bath solution as stock solutions in propanediol. The values stated relate to measurements 30 minutes after the addition. The APD95 in the presence of DEO or HOE 234 and in the absence of the test substance serves an a control.

[2] = system: RINm5F cells; assay: Membrane potential on isolated β cells (RINm5F cells, whole cell patch clamp); format: cell-based; settings: compound 10^−5 mol per liter, diazoxide (100 μmol) in bath, 34±1° C.
Excerpt: (2) Membrane potential on isolated β cells:
The action mechanism of hypoglycemic sulfonylureas is clarified in rough outlines. The β cells of the pancreas are the target organ, where increased secretion of the hypoglycemic hormone insulin occurs. The release of insulin is controlled by the cell membrane potential. Glibenclamide causes depolarization of the cell membrane, which promotes insulin release via an increased in-flow of calcium ions. The extent of this depolarization of the call membrane ΔU was determined on RINm5F cells, a pancreas tumor cell line, for some of the compounds according to the invention. The action strength of a compound in this model predicts the extent of the hypoglycemic potential of this compound.
RINm5F cells were cultured at 37° C. in RPMI 1640 culture medium (flow), to which […] of glucose, 10% (volume/volume) of fetal calf serum, 2 mmol of glutamine and 50 μg/ml of gentamycin were added. For the studies, the cells were isolated by incubation (about 3 minutes) in a Ca^2+-free medium containing 0.25% of trypsin and stored on ice.
Isolated RINm5F cells were introduced into a Plexi-glas chamber on an inverse microscope fitted with a differential interference contrast lens. A fire-polished micropipette with an opening diameter of about 1 μm was placed on the cell with the aid of a micromanipulator under optical control (400-fold magnification). By applying a slight reduced pressure in the patch pipette, a high electrical seal was first produced between the glass and cell membrane, and was then broken open by increasing the reduced pressure of the membrane spot under the measurement pipette. The cell potential was recorded in this whole cell configuration with the aid of a patch clamp amplifier (L/M EPC 7) and was measured by applying a potential ramp to the whole cell current.
Solutions: The patch pipette was filled with KCl solution (in mmol): 140 KCl, 10 NaCl, 1.1 MgCl2, 0.5 EGTA, 1 Mg-ATP, 10 HEPES, pH=7.2, and the bath contained NaCl solution (in mmol): 140 NaCl, 4.7 KCl, 1.1 MgCl2, 2 CaCl2, 10 HEPES, pH=7.4. […]

Row | Structure (SMILES) | melting point [°C] | APD95-HOE 234 [1] | APD95-DEO [1] | ΔU (depolarization of the cell membrane) [2]
1 | CNC(=O)NS(=O)(=O)c1cc(CCNC(=O)c2cc(Cl)ccc2OC)ccc1OC [Example 1, 2-Methoxy-5-chloro-N-{5-[1-sulfonylamino-N-(methylaminocarbonyl)-2-methoxyphenyl]-ethyl}-benzamide] |  | 138 ± 3 (160 ± 20) ms | 107 ± 14 (155 ± 9) ms | 13 (−76) n = 6 mv
2 | CNC(=O)NS(=O)(=O)c1cc(CCNC(=O)c2cc(Cl)ccc2OC)ccc1C [Example 4, 2-Methoxy-5-chloro-N-{5-[1-sulfonylamino-N-(methylaminocarbonyl)-2-methylphenyl]-ethyl}-benzamide] |  | 123 ± 15 (172 ± 18) ms | 110 ± 23 (180 ± 5) ms | 19 (−76) n = 3 mv
3 | CNC(=O)NS(=O)(=O)c1cc(CCCNC(=O)c2cc(Cl)ccc2OC)ccc1OC | 285 |  |  | 
4 | CNC(=S)NS(=O)(=O)c1cc(CCNC(=O)c2cc(Cl)ccc2OC)ccc1OC [Example 10, 2-Methoxy-5-chloro-N-{5-[1-sulfonylamino-N-(methylaminothiocarbonyl)-2-methoxyphenyl]-ethyl}-benzamide] |  | 137 ± 20 (150 ± 23) ms | 125 (175) ms | 11 (−79) n = 3 mv
5 | CNC(=O)NS(=O)(=O)c1cc(CCNC(=O)c2cc(F)ccc2OC)ccc1OC | 199 to 200 |  |  | 

Second part, led by results:

Row | melting point [°C] | Structure (SMILES) | APD95-HOE 234 [1] | APD95-DEO [1] | ΔU (depolarization of the cell membrane) [2]
6 | 155 | CCc1ccc(CCNC(=O)c2cc(Cl)ccc2OC)cc1S(=O)(=O)NC(=S)NC |  |  | 
7 | 190 to 195 | CCOc1ccc(CCNC(=O)c2cc(Cl)ccc2OC)cc1S(=O)(=O)NC(=O)NC |  |  | 
8 | 207 | CCc1ccc(CCNC(=O)c2cc(Cl)ccc2OC)cc1S(=O)(=O)NC(=O)NC |  |  | 
9 | 182 to 185 | CNC(=S)NS(=O)(=O)c1cc(CCNC(=O)c2cc(F)ccc2OC)ccc1OC |  |  | 
10 | 183 | CNC(=S)NS(=O)(=O)c1cc(CCNC(=O)c2cc(Cl)ccc2OC)ccc1C |  |  | 
